pIC50: −log10 of the molar value. Read-outs that look alike come from different tables or passages of the source.
Tests used:
[1] = target: T1, GSK3a (GST-full length GSK3a) (Homo sapiens, UniProt P49840); assay: GSK3a TR-FRET kinase inhibition assay; type: biochemical
T1 construct: GST-full length GSK3a [SignalChem G08-10G]; purchased SignalChem G08-10G
Procedure, shortened: (§1)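 IC50 derived from normalized 665/615 TR-FRET signal (Tb anti-pSer641 antibody, streptavidin-d2), read after EDTA stop. Reaction: 1 nM GST-full-length enzyme, 30 min compound pre-incubation, 100 min at ambient temperature in Tris pH 7.5 with 1% DMSO, 200 nM biotinylated primed glycogen synthase peptide, ATP 2 μM to 1 mM.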

[2] = target: T2, GSK3b (GST-full length GSK3b) (Homo sapiens, UniProt P49841); assay: GSK3b TR-FRET kinase inhibition assay; type: biochemical
T2 construct: GST-full length GSK3b: [SignalChem G08-9G]; purchased SignalChem G08-9G
Procedure, shortened: as §1

[3] = 4 μM ATP, read-out: GSK3α TR-FRET 4 μM ATP GMean IC50
[4] = 2 μM ATP, read-out: GSK3β TR-FRET 2 μM ATP GMean IC50
[5] = 1 mM ATP, Table 5, read-out: GSK3α TR-FRET 1 mM ATP Average IC50
[6] = 1 mM ATP, Table 5, read-out: GSK3β TR-FRET 1 mM ATP Average IC50
[7] = 1 mM ATP, Table 3, read-out: GSK3a TR-FRET 1 mM ATP Average IC50
[8] = 1 mM ATP, Table 3, read-out: GSK3b TR-FRET 1 mM ATP Average IC50

T1 sequence (P49840 whole entry): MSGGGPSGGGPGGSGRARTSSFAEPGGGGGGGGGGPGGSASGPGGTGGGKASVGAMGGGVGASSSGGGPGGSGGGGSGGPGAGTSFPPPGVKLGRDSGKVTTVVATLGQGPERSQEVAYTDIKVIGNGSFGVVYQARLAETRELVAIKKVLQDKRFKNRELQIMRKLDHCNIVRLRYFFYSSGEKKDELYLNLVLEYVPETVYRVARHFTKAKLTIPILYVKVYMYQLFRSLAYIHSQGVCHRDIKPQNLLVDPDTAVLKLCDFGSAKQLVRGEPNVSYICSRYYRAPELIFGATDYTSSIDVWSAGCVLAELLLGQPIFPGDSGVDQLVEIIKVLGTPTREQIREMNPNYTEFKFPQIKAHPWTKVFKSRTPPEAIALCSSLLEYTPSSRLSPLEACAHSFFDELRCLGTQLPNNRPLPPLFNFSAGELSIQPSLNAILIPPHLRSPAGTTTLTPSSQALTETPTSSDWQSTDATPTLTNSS
T2 sequence (P49841 whole entry): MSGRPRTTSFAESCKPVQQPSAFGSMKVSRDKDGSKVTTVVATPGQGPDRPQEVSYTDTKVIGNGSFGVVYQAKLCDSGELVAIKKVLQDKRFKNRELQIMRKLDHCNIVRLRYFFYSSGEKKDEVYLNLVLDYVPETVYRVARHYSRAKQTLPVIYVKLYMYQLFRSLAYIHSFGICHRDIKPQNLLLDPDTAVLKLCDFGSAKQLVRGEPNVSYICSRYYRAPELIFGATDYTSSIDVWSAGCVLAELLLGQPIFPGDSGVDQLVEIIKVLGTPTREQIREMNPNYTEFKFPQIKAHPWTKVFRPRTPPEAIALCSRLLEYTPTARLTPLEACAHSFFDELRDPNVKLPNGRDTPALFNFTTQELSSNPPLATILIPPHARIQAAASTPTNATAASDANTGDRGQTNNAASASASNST

`CCC1(c2cccc(-c3ccnc(C)c3C)c2)C2=C(CC(C)(C)CC2=O)Nc2ncccc21` (single isomer, unassigned) [147 A] gave a pIC50 [1, 3] of 5.30 to 6.00 and a pIC50 [2, 4] of less than 5.30.
For `CC1(C)CC2=C(C(=O)N1)C(C)(c1cccc(S(C)(=O)=O)c1)c1cc(C3CC3)cnc1N2` (single isomer, unassigned) [647A], the pIC50 [1, 5] was 6.00 to 7.00 and the pIC50 [2, 6] was 6.00 to 7.00.
`CCC1(c2cccc(-c3cc(C)nn3C)c2)C2=C(CC(C)(C)CC2=O)Nc2ncccc21` (single isomer, unassigned) [Compound 1024A] gave a pIC50 [1, 3] of 5.30 to 6.00 and a pIC50 [2, 4] of less than 5.30.
For `CCc1cnc2c(c1C#N)C(C)(c1ccccc1)C1=C(CC(C)(C)CC1=O)N2` (single isomer, unassigned) [608B], the pIC50 [1, 5] was 4.70 to 5.30 and the pIC50 [2, 6] was 4.70 to 5.30.
`CC1(C)CC(=O)C2=C(C1)Nc1ncc(CF)c(C#N)c1C2(C)c1ccccc1` (single isomer, unassigned) [614A] gave a pIC50 [1, 5] of 4.70 to 5.30 and a pIC50 [2, 6] of 4.70 to 5.30.
Molecule `CCC1(c2cccc(-c3ccncc3C)c2)C2=C(CC(C)(C)CC2=O)Nc2ncccc21` (single isomer, unassigned) [Compound 1020A] has a pIC50 [1, 3] of 5.30 to 6.00 and a pIC50 [2, 4] of less than 5.30.
With `CC1(C)CC(=O)C2=C(C1)Nc1nccc(F)c1C2(C)c1ccccc1` (single isomer, unassigned) [Compound 105B] the pIC50 [1, 7] was 5.30 to 6.00 and the pIC50 [2, 8] was 5.30 to 6.00.
`CC1(C)CC(=O)C2=C(C1)Nc1ncc(C3CCCC3)c(C#N)c1C2(C)c1ccccc1` (single isomer, unassigned) [635A] was tested, and the pIC50 [1, 5] was 4.70 to 5.30 and the pIC50 [2, 6] was 4.70 to 5.30.
`CC1(C)CC2=C(C(=O)N1)C(C)(c1cccc(S(C)(=O)=O)c1)c1cc(F)cnc1N2` (single isomer, unassigned) [638B] showed a pIC50 [1, 5] of 4.70 to 5.30 and a pIC50 [2, 6] of 4.70 to 5.30.
With `CC1(C)CC(=O)C2=C(C1)Nc1ncc(F)cc1C2(C)c1cccc(-c2c(F)cncc2CC2CC2)c1` (single isomer, unassigned) [Compound 169A] the pIC50 [1, 7] was 6.00 to 7.00 and the pIC50 [2, 8] was 6.00 to 7.00.
`Cn1ncc2c3c(ncc21)NC1=C(C(=O)CC(C)(C)C1)C3(C)c1ccccc1` (single isomer, unassigned) [609A] showed a pIC50 [1, 5] of 4.70 to 5.30 and a pIC50 [2, 6] of 4.70 to 5.30.
`CCC1(c2cccc(C(F)(F)F)c2)C2=C(CC(C)(C)CC2=O)Nc2ncccc21` (single isomer, unassigned) [Compound 1014A] was tested, and the pIC50 [1, 3] was 5.30 to 6.00 and the pIC50 [2, 4] was less than 5.30.
Molecule `CC1(C)CC(=O)C2=C(C1)Nc1ncc(C(C)(C)C)cc1C2(C)c1ccccc1` (single isomer, unassigned) [Compound 124B] has a pIC50 [1, 7] of 4.70 to 5.30 and a pIC50 [2, 8] of 4.70 to 5.30.
`CCC1(c2cccc(-c3ccnn3C)c2)C2=C(CC(C)(C)CC2=O)Nc2ncccc21` (single isomer, unassigned) [Compound 1019B] showed a pIC50 [1, 3] of less than 5.30 and a pIC50 [2, 4] of less than 5.30.
`CC1(C)CC(=O)C2=C(C1)Nc1ncc(C(F)(F)F)c(C#N)c1C2(C)c1ccccc1` (single isomer, unassigned) [Compound 137B] showed a pIC50 [1, 7] of 5.30 to 6.00 and a pIC50 [2, 8] of 5.30 to 6.00.
Work on `CCC1(c2ccccc2)C2=C(CC(C)(C)CC2=O)Nc2ncc(C(F)(F)F)cc21` (single isomer, unassigned) [133 A] yielded a pIC50 [1, 3] of less than 5.30 and a pIC50 [2, 4] of less than 5.30.
For `CCC1(c2ccccc2)C2=C(CC(C)(C)NC2=O)Nc2ncccc21` (single isomer, unassigned) [Compound 1002B], the pIC50 [1, 3] was 5.30 to 6.00 and the pIC50 [2, 4] was 5.30 to 6.00.
`COc1cnc2c(c1C1CC1)C(C)(c1ccccc1)C1=C(CC(C)(C)CC1=O)N2` (single isomer, unassigned) [626A] gave a pIC50 [1, 5] of 4.70 to 5.30 and a pIC50 [2, 6] of 4.70 to 5.30.
For `CC1(C)CC(=O)C2=C(C1)Nc1ncc(C(F)(F)F)c(F)c1C2(C)c1ccccc1` (single isomer, unassigned) [Compound 136B], the pIC50 [1, 7] was 4.70 to 5.30 and the pIC50 [2, 8] was 4.70 to 5.30.
With `CCC1(c2ccccc2)C2=C(CC(C)(C)CC2=O)Nc2ncccc21` (racemic) [Compound 102] the pIC50 [1, 3] was 6.00 to 7.00 and the pIC50 [2, 4] was 6.00 to 7.00.
Molecule `CC1(C)CC(=O)C2=C(C1)Nc1ncccc1C2c1ccccc1` (stereo not drawn) [Compound C1, reference compound] has a pIC50 [1, 3] of less than 5.30 and a pIC50 [2, 4] of less than 5.30.
With `CC1(C)CC(=O)C2=C(C1)Nc1ncc(C3CC3)c(C#N)c1C2(C)c1ccccc1` (single isomer, unassigned) [619B] the pIC50 [1, 5] was 4.70 to 5.30 and the pIC50 [2, 6] was 4.70 to 5.30.
`CC(C)Oc1cccc(C2(C)C3=C(CC(C)(C)CC3=O)Nc3ncc4c(cnn4C)c32)c1` (single isomer, unassigned) [645A] was tested, and the pIC50 [1, 5] was 4.70 to 5.30 and the pIC50 [2, 6] was 4.70 to 5.30.
`CC1(C)CC(=O)C2=C(C1)Nc1ncc(Br)c(F)c1C2(C)c1ccccc1` (single isomer, unassigned) [Compound 140A] showed a pIC50 [1, 7] of 5.30 to 6.00 and a pIC50 [2, 8] of 6.00 to 7.00.
`CC1(C)CC(=O)C2=C(C1)Nc1ncc(F)c(C#N)c1C2(C)c1cccc(F)c1` (single isomer, unassigned) [618A] showed a pIC50 [1, 5] of 4.70 to 5.30 and a pIC50 [2, 6] of 4.70 to 5.30.
`CC1(C)CC(=O)C2=C(C1)Nc1ncc(F)c(C#N)c1C2(C)c1ccccc1` (single isomer, unassigned) [Compound 121B] gave a pIC50 [1, 7] of 5.30 to 6.00 and a pIC50 [2, 8] of 5.30 to 6.00.
`CC1(C)CC(=O)C2=C(C1)Nc1ncc(C(C)(F)F)c(C#N)c1C2(C)c1ccccc1` (single isomer, unassigned) [631B] showed a pIC50 [1, 5] of 4.70 to 5.30 and a pIC50 [2, 6] of 4.70 to 5.30.
In the case of `CC1(C)CC(=O)C2=C(Nc3ncc(C(F)F)c(C#N)c3[C@@]2(C)c2ccccc2)[C@H]1F` (single isomer, unassigned) [Compound 633D], the pIC50 [1, 5] was 5.30 to 6.00 and the pIC50 [2, 6] was 6.00 to 7.00.
Molecule `CC1(C)CC(=O)C2=C(C1)Nc1ncc(C(F)(F)F)c(Cl)c1C2(C)c1ccccc1` (single isomer, unassigned) [Compound 141B] has a pIC50 [1, 7] of 5.30 to 6.00 and a pIC50 [2, 8] of 5.30 to 6.00.
For `CC1(C)CC2=C(C(=O)N1)C(C)(c1cccc(S(C)(=O)=O)c1)c1cc(F)cnc1N2` (single isomer, unassigned) [638A], the pIC50 [1, 5] was no less than 7.00 and the pIC50 [2, 6] was 6.00 to 7.00.
`CCC1(c2cccc(-c3ccnc(C)c3)c2)C2=C(CC(C)(C)CC2=O)Nc2ncccc21` (single isomer, unassigned) [Compound 1021A] showed a pIC50 [1, 3] of less than 5.30 and a pIC50 [2, 4] of less than 5.30.
`CC1(C)CC(=O)C2=C(C1)Nc1ncccc1C2(C)c1cccc(-c2ccncc2C2CCC2)c1` (single isomer, unassigned) [Compound 151A] showed a pIC50 [1, 7] of 5.30 to 6.00 and a pIC50 [2, 8] of 5.30 to 6.00.
In the case of `CCC1(c2cccc(-c3cnnc(C)c3)c2)C2=C(CC(C)(C)CC2=O)Nc2ncccc21` (single isomer, unassigned) [Compound 1022B], the pIC50 [1, 3] was less than 5.30 and the pIC50 [2, 4] was less than 5.30.
With `CC1(C)CC(=O)C2=C(Nc3ncc(C(F)F)c(C#N)c3[C@@]2(C)c2ccccc2)[C@@H]1F` (single isomer, unassigned) [Compound 633B] the pIC50 [1, 5] was 5.30 to 6.00 and the pIC50 [2, 6] was 6.00 to 7.00.
`CC1(C)CC(=O)C2=C(C1)Nc1ncc(F)c(C#N)c1C2(C)c1cccc(C(F)F)c1` (single isomer, unassigned) [634B] showed a pIC50 [1, 5] of no less than 7.00 and a pIC50 [2, 6] of no less than 7.00.
`CCC1(c2cccc(-c3ccncc3OC)c2)C2=C(CC(C)(C)CC2=O)Nc2ncccc21` (single isomer, unassigned) [Compound 1028A] gave a pIC50 [1, 3] of 5.30 to 6.00 and a pIC50 [2, 4] of less than 5.30.
With `CC1(C)CC2=C(C(=O)N1)C(C)(c1ccccc1)c1cc(C(F)(F)F)cnc1N2` (single isomer, unassigned) [625A] the pIC50 [1, 5] was 5.30 to 6.00 and the pIC50 [2, 6] was 5.30 to 6.00.
`CN(C)c1cnc2c(c1C#N)C(C)(c1ccccc1)C1=C(CC(C)(C)CC1=O)N2` (single isomer, unassigned) [624A] showed a pIC50 [1, 5] of 4.70 to 5.30 and a pIC50 [2, 6] of 4.70 to 5.30.
In the case of `CN1C(=O)C2=C(CC1(C)C)Nc1ncc(C(F)F)c(C#N)c1C2(C)c1ccccc1` (single isomer, unassigned) [632B], the pIC50 [1, 5] was 6.00 to 7.00 and the pIC50 [2, 6] was 6.00 to 7.00.
`CC1(C)CC(=O)C2=C(Nc3ncc(F)c(C#N)c3[C@@]2(C)c2ccccc2)[C@H]1F` (single isomer, unassigned) [Compound 617D] showed a pIC50 [1, 5] of 6.00 to 7.00 and a pIC50 [2, 6] of 6.00 to 7.00.
`CC1(C)CC(=O)C2=C(C1)Nc1ncc(F)c(C#N)c1C2(C)c1cccc(F)c1` (single isomer, unassigned) [618B] was tested, and the pIC50 [1, 5] was 6.00 to 7.00 and the pIC50 [2, 6] was 6.00 to 7.00.
Molecule `CC1(C)CC(=O)C2=C(C1)Nc1ncc(F)c(C#N)c1C2(C)c1cccc(S(C)(=O)=O)c1` (single isomer, unassigned) [Compound 148A] has a pIC50 [1, 7] of no less than 7.00 and a pIC50 [2, 8] of no less than 7.00.
For `CC(=O)c1cnc2c(c1C#N)C(C)(c1ccccc1)C1=C(CC(C)(C)CC1=O)N2` (single isomer, unassigned) [621A], the pIC50 [1, 5] was 4.70 to 5.30 and the pIC50 [2, 6] was 4.70 to 5.30.
`CC1(C)CC(=O)C2=C(C1)Nc1ncc(F)c(C3CC3)c1C2(C)c1ccccc1` (single isomer, unassigned) [Compound 125B] gave a pIC50 [1, 7] of 5.30 to 6.00 and a pIC50 [2, 8] of 5.30 to 6.00.
Molecule `CC(C)Oc1cccc(C2(C)C3=C(CC(C)(C)CC3=O)Nc3ncc(F)c(C#N)c32)c1` (single isomer, unassigned) [639A] has a pIC50 [1, 5] of 4.70 to 5.30 and a pIC50 [2, 6] of 4.70 to 5.30.
Molecule `CC1(C)CC(=O)C2=C(Nc3ncc(C(F)F)c(C#N)c3[C@]2(C)c2ccccc2)[C@H]1F` (single isomer, unassigned) [Compound 633A] has a pIC50 [1, 5] of 4.70 to 5.30 and a pIC50 [2, 6] of 5.30 to 6.00.
For `CC1(C)CC(=O)C2=C(C1)Nc1ncccc1C2(C)c1cccc(-c2ccncc2CC(F)(F)F)c1` (single isomer, unassigned) [Compound 163A], the pIC50 [1, 7] was 6.00 to 7.00 and the pIC50 [2, 8] was 6.00 to 7.00.
`CNc1cnc2c(c1C#N)C(C)(c1ccccc1)C1=C(CC(C)(C)CC1=O)N2` (single isomer, unassigned) [610B] was tested, and the pIC50 [1, 5] was 4.70 to 5.30 and the pIC50 [2, 6] was 4.70 to 5.30.

From US20260103465A1, “GLYCOGEN SYNTHASE KINASE 3 INHIBITORS AND USES THEREOF” (The Broad Institute, Inc., priority 2023, published 2026)
